From patent US20080242661A1, “Novel compounds useful for the treatment of degenerative & inflammatory diseases” (priority 2006, published 2008)

The compounds below were run against purified PDE1A enzyme (Homo sapiens, UniProt P54750) (assay: In vitro PDE1A assay, dose response (Biomol Cyclic Nucleotide Phosphodiesterase Assay Kit, colorimetric)). Conditions: 100 μM cAMP, 45 min at 37° C., 8 points from 20 μM, duplicate.
Type: biochemical
Source text: For the dose response and further screening, we used the Cyclic Nucleotide Phosphodiesterase Assay Kit from Biomol, a colorimetric, non-radioactive assay. The basis for the assay is the cleavage of cAMP by PDE1A. The 5′AMP is further cleaved into the nucleoside and phosphate by the enzyme 5′-nucleotidase (catnr KI-307). The phosphate released due to enzymatic cleavage is quantified using BIOMOL GREEN™ reagent (catnr AK-111) in a modified Malachite Green assay 1,2. A PDE1A inhibitor will result in a decrease of the signal.
For the enzymatic reaction a mix of 25 μL with purified PDE1A enzyme, 100 μM cAMP, 5′Nucleotidase and the compound is made in a clear 384-plate. The reaction buffer is Tris 20 mM pH 7.4, 4 μg/ml calmodulin, 3 mM MgCl2, 1.5 mM CaCl2, 0.2 mg/mL BSA and 0.001% Brij-35. After an incubation of 45 minutes at 37° C., the reaction is stopped by the addition of 50 μL BIOMOL GREEN™ reagent. After 30 minutes incubation at room temperature, the readout is performed on the Envision (absorption at 615 nm).
All compounds are tested in duplicate starting from 20 μM followed by a ⅓ serial dilution, 8 points (20 μM-6.67 μM-2.22 μM-740 nM-247 nM-82 nM-27 nM-9 nM) in a final concentration of 1% DMSO. As the positive dose response control compound Vardenafil is used. For the calculation of z′ and PIN values 10 μM Vardenafil is used as positive control (100% inhibition) and 1% DMSO as negative control (0% inhibition).
The following compounds have been or can be prepared according to the synthetic methods described above. For the purpose of Table 2 below, activity of each compound, which can be determined using the PDE1A assay method described in above, is expressed as follows: […]

SMILES	IC50
CCCc1nn(C)c2c(=O)[nH]c(N(CCC)CCC)nc12 [Example 4, 5-(dipropylamino)-1-methyl-3-propyl-1H-pyrazolo[4,3-d]pyrimidin-7(6H)-one]	< 100 nM
CCC(CC)CN(C)c1nc2c(C(C)(C)C)nn(C)c2c(=O)[nH]1 [Example 105, 3-tert-butyl-5-((2-ethylbutyl)(methyl)amino)-1-methyl-1H-pyrazolo[4,3-d]pyrimidin-7(6H)-one]	< 100 nM
CCCc1nn(C)c2c(=O)[nH]c(N(C)Cc3ccc(-c4ccncc4)cc3)nc12 [Example 40, 1-methyl-5-(methyl(4-(pyridin-4-yl)benzyl)amino)-3-propyl-1H-pyrazolo[4,3-d]pyrimidin-7(6H)-one]	< 100 nM
CCCc1nn(C)c2c(=O)[nH]c(NCc3ccc4c(ccn4C)c3)nc12 [Example 68, 1-methyl-5-((1-methyl-1H-indol-5-yl)methylamino)-3-propyl-1H-pyrazolo[4,3-d]pyrimidin-7(6H)-one]	101 to 500 nM
CCCc1nn(C)c2c(=O)[nH]c(N(C)Cc3ccc(F)cc3)nc12 [Example 21, 5-((4-fluorobenzyl)(methyl)amino)-1-methyl-3-propyl-1H-pyrazolo[4,3-d]pyrimidin-7(6H)-one]	< 100 nM
CCCc1nn(C)c2c(=O)[nH]c(NCc3cccc(-c4ccn(C)n4)c3)nc12 [Example 67]	< 100 nM
CCCc1nn(C)c2c(=O)[nH]c(N(C)Cc3cccc(N4CCOCC4)n3)nc12 [Example 42, 1-methyl-5-(methyl((6-morpholinopyridin-2-yl)methyl)amino)-3-propyl-1H-pyrazolo[4,3-d]pyrimidin-7(6H)-one]	101 to 500 nM
CCCc1nn(C)c2c(=O)[nH]c(NCc3ccc(N4CCN(C)CC4)cc3)nc12 [Example 6, 1-methyl-5-(4-(4-methylpiperazin-1-yl)benzylamino)-3-propyl-1H-pyrazolo[4,3-d]pyrimidin-7(6H)-one]	> 500 nM
CCCc1nn(C)c2c(=O)[nH]c(N(C)CCC(C)(C)C)nc12 [Example 110, 5-((3,3-dimethylbutyl)(methyl)amino)-1-methyl-3-propyl-1H-pyrazolo[4,3-d]pyrimidin-7(6H)-one]	< 100 nM
CCCc1nn(C)c2c(=O)[nH]c(N(C)Cc3ccc(-c4ccccn4)cc3)nc12 [Example 44, 1-methyl-5-(methyl(4-(pyridin-2-yl)benzyl)amino)-3-propyl-1H-pyrazolo[4,3-d]pyrimidin-7(6H)-one]	101 to 500 nM
CCCc1nn(C)c2c(=O)[nH]c(NCc3cccc(OCCN4CCOCC4)c3)nc12 [Example 55, 1-methyl-5-(3-(2-morpholinoethoxy)benzylamino)-3-propyl-1H-pyrazolo[4,3-d]pyrimidin-7(6H)-one]	101 to 500 nM
CCCc1nn(C)c2c(=O)[nH]c(N(C)Cc3sc(-c4ccccc4)nc3C)nc12 [Example 47, 1-methyl-5-(methyl((4-methyl-2-phenylthiazol-5-yl)methyl)amino)-3-propyl-1H-pyrazolo[4,3-d]pyrimidin-7(6H)-one]	< 100 nM
CCCc1nn(C)c2c(=O)[nH]c(NCc3ccnc(N4CCOCC4)c3)nc12 [Example 54, 1-methyl-5-((2-morpholinopyridin-4-yl)methylamino)-3-propyl-1H-pyrazolo[4,3-d]pyrimidin-7(6H)-one]	101 to 500 nM
CCCc1nn(C)c2c(=O)[nH]c(NCc3ccc(Cl)c(Cl)c3)nc12 [Example 32, 5-(3,4-dichlorobenzylamino)-1-methyl-3-propyl-1H-pyrazolo[4,3-d]pyrimidin-7(6H)-one]	101 to 500 nM
CCCc1nn(C)c2c(=O)[nH]c(NCCC(C)C)nc12 [Example 19, 5-(isopentylamino)-1-methyl-3-propyl-1H-pyrazolo[4,3-d]pyrimidin-7(6H)-one]	> 500 nM
CCC(CC)CN(Cc1cccc(N2CCOCC2)c1)c1nc2c(C(C)(C)C)nn(C)c2c(=O)[nH]1 [Example 109, 3-tert-butyl-5-((2-ethylbutyl)(3-morpholinobenzyl)amino)-1-methyl-1H-pyrazolo[4,3-d]pyrimidin-7(6H)-one]	< 100 nM
CCCc1nn(C)c2c(=O)[nH]c(N(C)Cc3nn(C)c4ccccc34)nc12 [Example 35, 1-methyl-5-(methyl((1-methyl-1H-indazol-3-yl)methyl)amino)-3-propyl-1H-pyrazolo[4,3-d]pyrimidin-7(6H)-one]	> 500 nM
CCCc1nn(C)c2c(=O)[nH]c(N3CCc4cc(OC)c(OC)cc4C3C)nc12 (stereo not shown) [Example 37, 5-(6,7-dimethoxy-1-methyl-3,4-dihydroisoquinolin-2(1H)-yl)-1-methyl-3-propyl-1H-pyrazolo[4,3-d]pyrimidin-7(6H)-one]	101 to 500 nM
CCCc1nn(C)c2c(=O)[nH]c(NCc3nnc4ccccn34)nc12 [Example 83, 5-([1,2,4]triazolo[4,3-a]pyridin-3-ylmethylamino)-1-methyl-3-propyl-1H-pyrazolo[4,3-d]pyrimidin-7(6H)-one]	101 to 500 nM

SMILES	IC50
CCCc1nn(C)c2c(=O)[nH]c(N(C)Cc3ccccc3Cl)nc12 [Example 24, 5-((2-chlorobenzyl)(methyl)amino)-1-methyl-3-propyl-1H-pyrazolo[4,3-d]pyrimidin-7(6H)-one]	101 to 500 nM
CCCc1nn(C)c2c(=O)[nH]c(NCCc3cnn(-c4ccccc4)c3)nc12 [Example 88, 1-methyl-5-(2-(1-phenyl-1H-pyrazol-4-yl)ethylamino)-3-propyl-1H-pyrazolo[4,3-d]pyrimidin-7(6H)-one]	> 500 nM
CCCc1nn(C)c2c(=O)[nH]c(N3CCN(C(=O)C(c4ccccc4)c4ccccc4)CC3)nc12 [Example 59, 5-(4-(2,2-diphenylacetoyl)piperazin-1-yl)-1-methyl-3-propyl-1H-pyrazolo[4,3-d]pyrimidin-7(6H)-one]	> 500 nM
CCCc1nn(C)c2c(=O)[nH]c(N(C)Cc3cccc(C(F)(F)F)c3)nc12 [Example 5, 1-methyl-5-(methyl(3-(trifluoromethyl)benzyl)amino)-3-propyl-1H-pyrazolo[4,3-d]pyrimidin-7(6H)-one]	101 to 500 nM
CCCc1nn(C)c2c(=O)[nH]c(N(Cc3cccc(-n4cccn4)c3)CC(CC)CC)nc12 [Example 107]	< 100 nM
CCCc1nn(C)c2c(=O)[nH]c(N(C)Cc3ccc(OC)cc3)nc12 [Example 9, 5-((4-methoxybenzyl)(methyl)amino)-1-methyl-3-propyl-1H-pyrazolo[4,3-d]pyrimidin-7(6H)-one]	< 100 nM
CCCc1nn(C)c2c(=O)[nH]c(Nc3ccc4[nH]ncc4c3)nc12 [Example 7, 5-(1H-indazol-5-ylamino)-1-methyl-3-propyl-1H-pyrazolo[4,3-d]pyrimidin-7(6H)-one]	> 500 nM
CCCc1nn(C)c2c(=O)[nH]c(NCc3cccc(F)c3)nc12 [Example 18, 5-(3-fluorobenzylamino)-1-methyl-3-propyl-1H-pyrazolo[4,3-d]pyrimidin-7(6H)-one]	> 500 nM
CC1CCCCN1c1nc2c(C3CCCC3)nn(C)c2c(=O)[nH]1 (stereo not shown) [Example 84, 3-cyclopentyl-1-methyl-5-(2-methylpiperidin-1-yl)-1H-pyrazolo[4,3-d]pyrimidin-7(6H)-one]	> 500 nM
CCCc1nn(C)c2c(=O)[nH]c(N(Cc3cccc(N4CCN(C)CC4)c3)CC(C)C)nc12 [Example 102, 5-(isobutyl(3-(4-methylpiperazin-1-yl)benzyl)amino)-1-methyl-3-propyl-1H-pyrazolo[4,3-d]pyrimidin-7(6H)-one]	< 100 nM
CCC(C)CN(Cc1cccc(-n2cncn2)c1)c1nc2c(C(C)(C)C)nn(C)c2c(=O)[nH]1 (stereo not shown) [Example 118]	< 100 nM
CC(C)CN(Cc1ccc(F)cc1)c1nc2c(C(C)(C)C)nn(C)c2c(=O)[nH]1 [Example 97, 3-tert-butyl-5-((4-fluorobenzyl)(isobutyl)amino)-1-methyl-1H-pyrazolo[4,3-d]pyrimidin-7(6H)-one]	< 100 nM
CCCc1nn(C)c2c(=O)[nH]c(N3CCc4ccccc4C3)nc12 [Example 8, 5-(3,4-dihydroisoquinolin-2(1H)-yl)-1-methyl-3-propyl-1H-pyrazolo[4,3-d]pyrimidin-7(6H)-one]	101 to 500 nM
CCCc1nn(C)c2c(=O)[nH]c(N(CCC(C)C)Cc3cccc(-n4cccn4)c3)nc12 [Example 106]	< 100 nM
CCCc1nn(C)c2c(=O)[nH]c(N(C)Cc3cccc(-c4ccncc4)c3)nc12 [Example 43, 1-methyl-5-(methyl(3-(pyridin-4-yl)benzyl)amino)-3-propyl-1H-pyrazolo[4,3-d]pyrimidin-7(6H)-one]	< 100 nM
CCCc1nn(C)c2c(=O)[nH]c(N(Cc3cccc(-n4cncn4)c3)CC(C)CC)nc12 (stereo not shown) [Example 116]	< 100 nM
CCCc1nn(C)c2c(=O)[nH]c(N(Cc3cccc(-n4cccc4)c3)CC(C)C)nc12 [Example 101]	< 100 nM
CCCc1nn(C)c2c(=O)[nH]c(NCc3cccc(-n4cccn4)c3)nc12 [Example 63]	101 to 500 nM
